Biological target: Human Constitutive (Hu C-20S) β5 Active Subunit (Homo sapiens, UniProt P28074)
Test: IC50 determination, human constitutive 20S proteasome β5c (suc-LLVY-AMC hydrolysis)
Assay type: biochemical
Settings: Table 3; IC50 against human constitutive β5 active subunit; read-out: Hu-C20S β5

## CC[C@H]1CCCCN1C(=O)C[C@H](NC(=O)CCC(C)C)C(=O)N[C@@H](C)c1nc2c(F)cc(F)cc2[nH]1 [CEN-45, N—((S)-1-(((S)-1-(4,6-Difluoro-1H-benzo[d]Imidazol-2-yl)ethyl)amino)-4-((S)-2-ethylpiperidin-1-yl)-1,4-dioxobutan-2-yl)-4-methylpentanamide]
  IC50: 4.1 µM

## C[C@H](NC(=O)[C@H](CC(=O)N1CCCC[C@@H]1C)NS(=O)(=O)Cc1ccccc1)c1ncc(-c2ccc(F)cc2F)[nH]1 [CEN-112, (S)—N—((S)-1-(5-(2,4-Difluorophenyl)-1H-imidazol-2-yl)ethyl)-4-((S)-2-methylpiperidin-1-yl)-4-oxo-2-((phenylmethyl)sulfonamido)butanamide]
  IC50: 6.1 µM

## Cc1cc(C(=O)N[C@@H](CC(=O)N2CCCC[C@@H]2C)C(=O)N[C@@H](C)c2nc3ccccc3[nH]2)no1 [CEN-36, N—((S)-1-(((S)-1-(1H-Benzo[d]imidazol-2-yl)ethyl)amino)-4-((S)-2-methylpiperidin-1-yl)-1,4-dioxobutan-2-yl)-5-methylisoxazole-3-carboxamide]
  IC50: 17.5 µM

## CC(C)CCC(=O)N[C@@H](CC(=O)N1CCCC[C@@H]1C)C(=O)NCc1nc2ccccc2[nH]1 [CEN-31, N—((S)-1-(((1H-Benzo[d]imidazol-2-yl)methyl)amino)-4-((S)-2-methylpiperidin-1-yl)-1,4-dioxobutan-2-yl)-4-methylpentanamide]
  IC50: 17.6 µM

## C[C@H](NC(=O)[C@H](CC(=O)N1CCC[C@@H]1c1ccccc1)NC(=O)CCC(C)(C)C)c1nc2ccccc2[nH]1 [CEN-54, N—((S)-1-(((S)-1-(1H-Benzo[d]imidazol-2-yl)ethyl)amino)-1,4-dioxo-4-((R)-2-phenylpyrrolidin-1-yl)butan-2-yl)-4,4-dimethylpentanamide]
  IC50: 16.6 µM

## CC(C)C(=O)CN[C@@H](CC(=O)N1CCCC[C@@H]1C)C(=O)N[C@@H](C)c1ncc(-c2ccc(F)cc2F)[nH]1 [CEN-85, (S)—N—((S)-1-(5-(2,4-Difluorophenyl)-1H-imidazol-2-yl)ethyl)-2-((3-methyl-2-oxobutyl)amino)-4-((S)-2-methylpiperidin-1-yl)-4-oxobutanamide]
  IC50: 9.9 µM

## C[C@H](NC(=O)[C@H](CC(=O)N1CCCC[C@@H]1C)NC(=O)[C@H]1C[C@@H]1c1ccccc1)c1nc2c(F)cccc2[nH]1 [CEN-55, (1S,2S)—N—((S)-1-(((S)-1-(4-Fluoro-1H-benzo[d]Imidazol-2-yl)ethyl)amino)-4-((S)-2-methylpiperidin-1-yl)-1,4-dioxobutan-2-yl)-2-phenylcyclopropane-1-carboxamide]
  IC50: 12.3 µM

## CC(C)CCC(=O)N[C@@H](CC(=O)N1CCCC[C@@H]1C)C(=O)N[C@H](C)c1nc2ccccc2[nH]1 [CEN-34, N—((S)-1-(((R)-1-(1H-Benzo[d]imidazol-2-yl)ethyl)amino)-4-((S)-2-methylpiperidin-1-yl)-1,4-dioxobutan-2-yl)-4-methylpentanamide]
  IC50: 15.6 µM

## C[C@H](NC(=O)N(CC(=O)N1CCCC[C@@H]1C)NC(=O)CCC(C)(C)C)c1ncc(-c2ccc(F)cc2F)[nH]1 [CEN-101, N—((S)-1-(5-(2,4-Difluorophenyl)-1H-imidazol-2-yl)ethyl)-2-(4,4-dimethylpentanoyl)-1-(2-((S)-2-methylpiperidin-1-yl)-2-oxoethyl)hydrazine-1-carboxamide]
  IC50: 7.6 µM

## CC[C@H]1CCCCN1C(=O)C[C@H](NC(=O)N1CCOCC1)C(=O)N[C@@H](C)c1nc2c(F)cccc2[nH]1 [CEN-14, N—((S)-4-((S)-2-Ethylpiperidin-1-yl)-1-(((S)-1-(4-fluoro-1H-benzo[d]imidazol-2-yl)ethyl)amino)-1,4-dioxobutan-2-yl)morpholine-4-carboxamide]
  IC50: 4.5 µM

## CC[C@H]1CCCCN1C(=O)C[C@H](NS(=O)(=O)CCC(C)C)C(=O)N[C@@H](C)c1nc2c(F)cccc2[nH]1 [CEN-24, (S)-4-((S)-2-Ethylpiperidin-1-yl)-N—((S)-1-(4-fluoro-1H-benzo[d]imidazol-2-yl)ethyl)-2-((3-methylbutyl)sulfonamido)-4-oxobutanamide]
  IC50: 17.8 µM
